Reference: PubChem BioAssay (NCI)
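These data come from cells grown in 96-well plates and exposed to compound for 48 hours at five concentrations. At the TGI there is no net growth.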

Assays:
Experiment in all cases: DTP human tumour cell line panel, 48 h
MOLT-4 leukemia = system: MOLT-4 leukemia
SK-OV-3 ovarian = system: SK-OV-3 ovarian
HCC-2998 colon = system: HCC-2998 colon
SF-268 CNS = system: SF-268 CNS
NCI-H460 lung = system: NCI-H460 lung
T-47D breast = system: T-47D breast
HCT-116 colon = system: HCT-116 colon
HT29 colon = system: HT29 colon
LOX IMVI melanoma = system: LOX IMVI melanoma
HOP-62 NSCLC = system: HOP-62 NSCLC
BT-549 breast = system: BT-549 breast
RXF 393 renal = system: RXF 393 renal
OVCAR-4 ovarian = system: OVCAR-4 ovarian
CAKI-1 renal = system: CAKI-1 renal
EKVX NSCLC = system: EKVX NSCLC
NCI-H522 lung = system: NCI-H522 lung
CCRF-CEM leukemia = system: CCRF-CEM leukemia
786-0 renal = system: 786-0 renal
HL-60(TB) leukemia = system: HL-60(TB) leukemia
COLO 205 colon = system: COLO 205 colon
NCI-H23 lung = system: NCI-H23 lung
MDA-MB-435 = system: MDA-MB-435
NCI-H226 lung = system: NCI-H226 lung
SK-MEL-2 melanoma = system: SK-MEL-2 melanoma
SR leukemia = system: SR leukemia
MDA-N = system: MDA-N
SN12C renal = system: SN12C renal
UACC-257 melanoma = system: UACC-257 melanoma
OVCAR-5 ovarian = system: OVCAR-5 ovarian
SW-620 colon = system: SW-620 colon
SF-539 CNS = system: SF-539 CNS
U251 CNS = system: U251 CNS
HS 578T breast = system: HS 578T breast
KM12 colon = system: KM12 colon
OVCAR-3 ovarian = system: OVCAR-3 ovarian
UACC-62 melanoma = system: UACC-62 melanoma
DU-145 prostate = system: DU-145 prostate
SK-MEL-5 melanoma = system: SK-MEL-5 melanoma
TK-10 renal = system: TK-10 renal
ACHN renal = system: ACHN renal
SK-MEL-28 melanoma = system: SK-MEL-28 melanoma
SF-295 CNS = system: SF-295 CNS
RPMI-8226 leukemia = system: RPMI-8226 leukemia
MCF7 breast = system: MCF7 breast
NCI/ADR-RES ovarian = system: NCI/ADR-RES ovarian
MDA-MB-231 breast = system: MDA-MB-231 breast
HCT-15 colon = system: HCT-15 colon
SNB-19 CNS = system: SNB-19 CNS
MALME-3M melanoma = system: MALME-3M melanoma
M14 melanoma = system: M14 melanoma
IGROV1 ovarian = system: IGROV1 ovarian
A549 NSCLC = system: A549 NSCLC
K-562 leukemia = system: K-562 leukemia
OVCAR-8 ovarian = system: OVCAR-8 ovarian
PC-3 prostate = system: PC-3 prostate
UO-31 renal = system: UO-31 renal
A498 renal = system: A498 renal
HOP-92 NSCLC = system: HOP-92 NSCLC
SNB-75 CNS = system: SNB-75 CNS

With `Cc1nn(C(=O)c2ccccc2O)c2c1C(c1ccccc1)SC(N)=N2` (stereo not given) the TGI (MOLT-4 leukemia) was > 10 µM, the TGI (SK-OV-3 ovarian) was > 10 µM and the TGI (HCC-2998 colon) was > 10 µM. For the same compound, the TGI (SF-268 CNS) was > 10 µM, the TGI (NCI-H460 lung) was > 10 µM and the TGI (T-47D breast) was > 10 µM. The TGI (HCT-116 colon) was > 10 µM, the TGI (HT29 colon) was > 10 µM and the TGI (LOX IMVI melanoma) was > 10 µM. The TGI (HOP-62 NSCLC) was > 10 µM, the TGI (BT-549 breast) was > 10 µM and the TGI (RXF 393 renal) was > 10 µM. For the same compound, the TGI (OVCAR-4 ovarian) was > 10 µM, the TGI (CAKI-1 renal) was > 10 µM and the TGI (EKVX NSCLC) was > 10 µM. The TGI (NCI-H522 lung) was > 10 µM, the TGI (CCRF-CEM leukemia) was 8.15 µM and the TGI (786-0 renal) was > 10 µM. For the same compound, the TGI (HL-60(TB) leukemia) was 3.58 µM, the TGI (COLO 205 colon) was > 10 µM and the TGI (NCI-H23 lung) was > 10 µM. For the same compound, the TGI (MDA-MB-435) was > 10 µM, the TGI (NCI-H226 lung) was 7.38 µM and the TGI (SK-MEL-2 melanoma) was > 10 µM. For the same compound, the TGI (SR leukemia) was 6.49 µM, the TGI (MDA-N) was > 10 µM and the TGI (SN12C renal) was > 10 µM. The TGI (UACC-257 melanoma) was > 10 µM, the TGI (OVCAR-5 ovarian) was > 10 µM and the TGI (SW-620 colon) was > 10 µM. For the same compound, the TGI (SF-539 CNS) was 0.621 µM, the TGI (U251 CNS) was > 10 µM and the TGI (HS 578T breast) was > 10 µM. For the same compound, the TGI (KM12 colon) was > 10 µM, the TGI (OVCAR-3 ovarian) was 7.22 µM and the TGI (UACC-62 melanoma) was 9.73 µM. For the same compound, the TGI (DU-145 prostate) was > 10 µM, the TGI (SK-MEL-5 melanoma) was > 10 µM and the TGI (TK-10 renal) was > 10 µM. For the same compound, the TGI (ACHN renal) was > 10 µM, the TGI (SK-MEL-28 melanoma) was > 10 µM and the TGI (SF-295 CNS) was > 10 µM. For the same compound, the TGI (RPMI-8226 leukemia) was 6.05 µM, the TGI (MCF7 breast) was > 10 µM and the TGI (NCI/ADR-RES ovarian) was > 10 µM. The TGI (MDA-MB-231 breast) was > 10 µM, the TGI (HCT-15 colon) was > 10 µM and the TGI (SNB-19 CNS) was > 10 µM. For the same compound, the TGI (MALME-3M melanoma) was > 10 µM, the TGI (M14 melanoma) was > 10 µM and the TGI (IGROV1 ovarian) was 6.96 µM. For the same compound, the TGI (A549 NSCLC) was > 10 µM, the TGI (K-562 leukemia) was 4.76 µM and the TGI (OVCAR-8 ovarian) was > 10 µM. For the same compound, the TGI (PC-3 prostate) was > 10 µM.

With `COc1cc2ccnc3c2c(c1O)N(C)C=C3` the TGI (MOLT-4 leukemia) was > 100 µM, the TGI (SK-OV-3 ovarian) was 27.4 µM and the TGI (HCC-2998 colon) was 48.2 µM. The TGI (SF-268 CNS) was 36.6 µM, the TGI (NCI-H460 lung) was > 66 µM and the TGI (UO-31 renal) was 22.3 µM. The TGI (T-47D breast) was > 24.7 µM, the TGI (HCT-116 colon) was 16.4 µM and the TGI (LOX IMVI melanoma) was > 50.6 µM. For the same compound, the TGI (HOP-62 NSCLC) was 46.4 µM, the TGI (BT-549 breast) was 22.9 µM and the TGI (RXF 393 renal) was 30 µM. It also gave a TGI (OVCAR-4 ovarian) of 32.4 µM, a TGI (CAKI-1 renal) of 20.6 µM and a TGI (EKVX NSCLC) of 33.4 µM. For the same compound, the TGI (CCRF-CEM leukemia) was > 100 µM, the TGI (786-0 renal) was 21.8 µM and the TGI (COLO 205 colon) was > 63.1 µM. For the same compound, the TGI (NCI-H23 lung) was 37.5 µM, the TGI (A498 renal) was 23.4 µM and the TGI (MDA-MB-435) was > 86.5 µM. For the same compound, the TGI (NCI-H226 lung) was 37.4 µM, the TGI (SK-MEL-2 melanoma) was 33.9 µM and the TGI (SR leukemia) was > 100 µM. The TGI (MDA-N) was > 38.4 µM, the TGI (SN12C renal) was > 61.2 µM and the TGI (UACC-257 melanoma) was 32.5 µM. For the same compound, the TGI (OVCAR-5 ovarian) was 33.9 µM, the TGI (SW-620 colon) was > 100 µM and the TGI (U251 CNS) was > 100 µM. For the same compound, the TGI (HOP-92 NSCLC) was > 100 µM, the TGI (HS 578T breast) was 53.1 µM and the TGI (KM12 colon) was 40.2 µM. It also gave a TGI (OVCAR-3 ovarian) of 17.8 µM, a TGI (SNB-75 CNS) of 38.8 µM and a TGI (UACC-62 melanoma) of 25.6 µM. For the same compound, the TGI (DU-145 prostate) was > 62 µM, the TGI (SK-MEL-5 melanoma) was 32.5 µM and the TGI (TK-10 renal) was 32.9 µM. For the same compound, the TGI (ACHN renal) was 27.6 µM, the TGI (SK-MEL-28 melanoma) was > 66.2 µM and the TGI (SF-295 CNS) was 28.6 µM. The TGI (RPMI-8226 leukemia) was > 100 µM, the TGI (MCF7 breast) was > 91.6 µM and the TGI (NCI/ADR-RES ovarian) was 54.5 µM. The TGI (MDA-MB-231 breast) was > 71.1 µM, the TGI (HCT-15 colon) was > 64.2 µM and the TGI (SNB-19 CNS) was > 62.9 µM. The TGI (MALME-3M melanoma) was 21.7 µM, the TGI (M14 melanoma) was 37 µM and the TGI (IGROV1 ovarian) was 26.1 µM. For the same compound, the TGI (A549 NSCLC) was 50.3 µM, the TGI (K-562 leukemia) was > 100 µM and the TGI (OVCAR-8 ovarian) was > 46.8 µM. For the same compound, the TGI (PC-3 prostate) was 29.5 µM.
